Measurements: ChEMBL document CHEMBL5346947, “Targeting the Estrogen Receptor for the Treatment of Breast Cancer: Recent Advances and Challenges” (J Med Chem, 2023)

Key:
MCF7 [1] = experiment: Antitumor activity against human MCF7 cells xenograft model assessed as tumor growth inhibition at 60 mg/kg relative to control; type: functional; conditions: read-out: TGI
MCF7 [2] = experiment: Antitumor activity against human MCF7 cells xenograft model assessed as tumor growth inhibition at 90 mg/kg relative to control; type: functional; conditions: read-out: TGI
MCF7 [3] = experiment: Antitumor activity against human MCF7 cells xenograft model assessed as tumor growth inhibition at 30 mg/kg relative to control; type: functional; conditions: read-out: TGI
MCF7 [4] = experiment: Antitumor activity against human MCF7 cells xenograft model assessed as tumor growth inhibition at 120 mg/kg relative to control; type: functional; conditions: read-out: TGI
[5] = Clearance in cynomolgus monkey at 5 mg/kg, iv measured upto 24 hrs by LC-MS/MS analysis; type: ADME, organism-based, Macaca fascicularis; conditions: in vivo
[6] = Oral bioavailability in cynomolgus monkey at 10 mg/kg measured upto 24 hrs by LC-MS/MS analysis; type: ADME, organism-based, Macaca fascicularis; conditions: in vivo
[7] = AUC in cynomolgus monkey at 10 mg/kg, po measured upto 24 hrs by LC-MS/MS analysis; type: ADME, organism-based, Macaca fascicularis; set-up: dose 10 mg/kg, time < 24 hrs, route po; conditions: in vivo
[8] = Cmax in cynomolgus monkey at 10 mg/kg, po measured upto 24 hrs by LC-MS/MS analysis; type: ADME, organism-based, Macaca fascicularis; set-up: time < 24 hrs, dose 10 mg/kg, route po; conditions: in vivo
[9] = Oral bioavailability in Sprague-Dawley rat at 10 mg/kg measured upto 24 hrs by LC-MS/MS analysis; type: ADME, organism-based; conditions: in vivo
[10] = Half life in cynomolgus monkey at 5 mg/kg, iv measured upto 24 hrs by LC-MS/MS analysis; type: ADME, organism-based, Macaca fascicularis; conditions: in vivo
[11] = Half life in Sprague-Dawley rat at 5 mg/kg, iv measured upto 24 hrs by LC-MS/MS analysis; type: ADME, organism-based; conditions: in vivo
MCF7 [12] = experiment: Growth inhibition of human MCF7 cells; type: functional
[13] = Volume of distribution at steady state in cynomolgus monkey at 5 mg/kg, iv measured upto 24 hrs by LC-MS/MS analysis; type: ADME, organism-based, Macaca fascicularis; conditions: in vivo, read-out: Vdss
[14] = Volume of distribution at steady state in Sprague-Dawley rat at 5 mg/kg, iv measured upto 24 hrs by LC-MS/MS analysis; type: ADME, organism-based; conditions: in vivo, read-out: Vdss
[15] = Cmax in Sprague-Dawley rat at 10 mg/kg, po measured upto 24 hrs by LC-MS/MS analysis; type: ADME, organism-based; set-up: dose 10 mg/kg, time < 24 hrs, route po; conditions: in vivo
[16] = AUC in Sprague-Dawley rat at 10 mg/kg, po measured upto 24 hrs by LC-MS/MS analysis; type: ADME, organism-based; set-up: time < 24 hrs, dose 10 mg/kg, route po; conditions: in vivo
[17] = target: T1, Progesterone receptor (Homo sapiens) (UniProt P06401); experiment: Inhibition of PGR transcription in human MCF7 harboring ERalpha […] mutant measured upto 96 hrs by qPCR analysis relative to control; type: cell-based
T1 sequence (whole entry): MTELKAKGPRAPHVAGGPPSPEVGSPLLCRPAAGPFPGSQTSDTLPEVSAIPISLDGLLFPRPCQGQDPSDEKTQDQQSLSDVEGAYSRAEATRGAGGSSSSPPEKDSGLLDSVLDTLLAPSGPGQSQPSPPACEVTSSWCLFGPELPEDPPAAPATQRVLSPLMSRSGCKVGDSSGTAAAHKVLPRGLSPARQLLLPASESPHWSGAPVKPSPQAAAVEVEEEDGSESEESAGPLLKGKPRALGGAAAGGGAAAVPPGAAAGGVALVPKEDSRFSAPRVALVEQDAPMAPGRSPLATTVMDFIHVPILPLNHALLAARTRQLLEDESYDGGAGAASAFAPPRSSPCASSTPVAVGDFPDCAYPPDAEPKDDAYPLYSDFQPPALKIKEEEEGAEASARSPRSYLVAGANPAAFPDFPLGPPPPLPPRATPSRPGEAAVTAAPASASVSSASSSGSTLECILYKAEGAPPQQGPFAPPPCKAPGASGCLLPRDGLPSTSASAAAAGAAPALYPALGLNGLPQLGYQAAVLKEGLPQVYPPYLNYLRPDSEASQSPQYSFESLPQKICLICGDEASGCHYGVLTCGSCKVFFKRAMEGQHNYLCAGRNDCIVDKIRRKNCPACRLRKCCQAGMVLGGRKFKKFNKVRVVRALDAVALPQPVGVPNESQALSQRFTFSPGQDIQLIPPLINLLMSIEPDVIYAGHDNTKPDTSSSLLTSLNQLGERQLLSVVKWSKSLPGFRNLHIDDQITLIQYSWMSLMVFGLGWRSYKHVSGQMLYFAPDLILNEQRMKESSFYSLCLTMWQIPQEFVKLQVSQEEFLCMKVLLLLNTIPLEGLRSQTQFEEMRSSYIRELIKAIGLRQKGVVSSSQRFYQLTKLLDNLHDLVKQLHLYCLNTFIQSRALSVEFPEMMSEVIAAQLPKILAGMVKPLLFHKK

[18] = target: T1, Progesterone receptor (Homo sapiens); experiment: Inhibition of PGR transcription in human MCF7 harboring wild type ERalpha measured upto 96 hrs by qPCR analysis relative to control; type: cell-based
MCF7 [19] = experiment: Antiproliferative activity against human MCF7 cells harboring wild type ERalpha assessed as inhibition of cell growth incubated for 6 to 7 days by high content imaging assay; type: functional, cell-based
MCF7 [20] = experiment: Antiproliferative activity against human MCF7 cells harboring ERalpha Y537N mutant assessed as inhibition of cell growth incubated for 6 to 7 days by high content imaging assay; type: functional, cell-based
[21] = Antitumor activity in tamoxifen-resistant human MCF7 cells xenografted in 17beta-estradiol-treated NOD/SCID mouse model assessed as tumor growth inhibition at 60 mg/kg, po QD for 28 days relative to control; type: functional; conditions: tamoxifen-resistant MCF7 cell, 672 h, time 28 day, read-out: TGI
[22] = Cmax in human MCF7 cells xenografted in 17beta-estradiol-treated NOD/SCID mouse model at 30 mg/kg, po and measured after 18 hrs post last dose; conditions: in vivo
[23] = Cmax in human MCF7 cells xenografted in 17beta-estradiol-treated NOD/SCID mouse model at 3 mg/kg, po and measured after 18 hrs post last dose; conditions: in vivo
[24] = AUC (0-24hrs) in human MCF7 cells xenografted in 17beta-estradiol-treated NOD/SCID mouse model at 3 mg/kg, po and measured after 18 hrs post last dose; conditions: in vivo
[25] = AUC (0-24hrs) in human MCF7 cells xenografted in 17beta-estradiol-treated NOD/SCID mouse model at 10 mg/kg, po and measured after 18 hrs post last dose; conditions: in vivo
MCF7 [26] = experiment: animal or person; conditions: Mus musculus, MCF7, 18 h, read-out: TGI
Description: Antitumor activity in human MCF7 cells xenografted in 17beta-estradiol-treated NOD/SCID mouse model assessed as tumor growth inhibition at 10 mg/kg, sc and measured after 18 hrs post last dose

MCF7 [27] = experiment: animal or person; conditions: Mus musculus, MCF7, po, 672 h, read-out: TGI
Description: Antitumor activity in human MCF7 cells xenografted in 17beta-estradiol-treated NOD/SCID mouse model assessed as tumor growth inhibition at 30 mg/kg, po QD for 28 days relative to control

[28] = Antitumor activity in tamoxifen-resistant human MCF7 cells xenografted in 17beta-estradiol-treated NOD/SCID mouse model assessed as tumor growth inhibition at 30 mg/kg, po QD for 28 days in the presence of palbociclib at 60 mg/kg relative to control; type: functional; conditions: tamoxifen-resistant MCF7 cell, 672 h, time 28 day, read-out: TGI
[29] = target: T2, Protein cereblon/Estrogen receptor (Homo sapiens) (UniProt P03372+Q96SW2); experiment: Protac activity at E3 ubiquitin-protein ligase/ERalpha in human MCF7 cells xenografted in 17beta-estradiol-treated NOD/SCID mouse model assessed as reduction in ERalpha degradation at 10 mg/kg, po and measured after 18 hrs post last dose relative to control; set-up: scale not given: the % may be the effect or the level left
[30] = target: T2, Protein cereblon/Estrogen receptor (Homo sapiens); experiment: Protac activity at E3 ubiquitin-protein ligase/ERalpha in human MCF7 cells xenografted in 17beta-estradiol-treated NOD/SCID mouse model assessed as reduction in ERalpha degradation at 3 mg/kg and measured after 18 hrs post last dose relative to control; type: organism-based; set-up: scale not given: the % may be the effect or the level left
MCF7 [31] = experiment: animal or person; conditions: Mus musculus, MCF7, po, 672 h, read-out: TGI; remark: listed apart in the source
Description: Antitumor activity in human MCF7 cells xenografted in 17beta-estradiol-treated NOD/SCID mouse model assessed as tumor growth inhibition at 30 mg/kg, po QD for 28 days in the presence of palbociclib at 60 mg/kg relative to control

[32] = Cmax in human MCF7 cells xenografted in 17beta-estradiol-treated NOD/SCID mouse model at 10 mg/kg, po and measured after 18 hrs post last dose; conditions: in vivo
MCF7 [33] = experiment: animal or person; conditions: Mus musculus, MCF7, 18 h, read-out: TGI; remark: listed apart in the source
Description: Antitumor activity in human MCF7 cells xenografted in 17beta-estradiol-treated NOD/SCID mouse model assessed as tumor growth inhibition at 30 mg/kg, sc and measured after 18 hrs post last dose

MCF7 [34] = experiment: animal or person; conditions: Mus musculus, MCF7, 336 h, read-out: TGI
Description: Antitumor activity in human MCF7 cells xenografted in 17beta-estradiol-treated NOD/SCID mouse model assessed as tumor growth inhibition at 200 mg/kg, sc BIW for 2 weeks in the presence of palbociclib at 60 mg/kg relative to control

[35] = target: T2, Protein cereblon/Estrogen receptor (Homo sapiens); experiment: Protac activity at E3 ubiquitin-protein ligase/ERalpha in human MCF7 cells xenografted in 17beta-estradiol-treated NOD/SCID mouse model assessed as reduction in ERalpha degradation at 30 mg/kg, po and measured after 18 hrs post last dose relative to control; set-up: scale not given: the % may be the effect or the level left
[36] = AUC (0-24hrs) in human MCF7 cells xenografted in 17beta-estradiol-treated NOD/SCID mouse model at 30 mg/kg, po and measured after 18 hrs post last dose; conditions: in vivo
[37] = Antitumor activity in tamoxifen-resistant human MCF7 cells xenografted in 17beta-estradiol-treated NOD/SCID mouse model assessed as tumor growth inhibition at 30 mg/kg, po QD for 28 days relative to control; type: functional; conditions: tamoxifen-resistant MCF7 cell, 672 h, time 28 day, read-out: TGI

T2 sequence (P03372 whole entry, looked up): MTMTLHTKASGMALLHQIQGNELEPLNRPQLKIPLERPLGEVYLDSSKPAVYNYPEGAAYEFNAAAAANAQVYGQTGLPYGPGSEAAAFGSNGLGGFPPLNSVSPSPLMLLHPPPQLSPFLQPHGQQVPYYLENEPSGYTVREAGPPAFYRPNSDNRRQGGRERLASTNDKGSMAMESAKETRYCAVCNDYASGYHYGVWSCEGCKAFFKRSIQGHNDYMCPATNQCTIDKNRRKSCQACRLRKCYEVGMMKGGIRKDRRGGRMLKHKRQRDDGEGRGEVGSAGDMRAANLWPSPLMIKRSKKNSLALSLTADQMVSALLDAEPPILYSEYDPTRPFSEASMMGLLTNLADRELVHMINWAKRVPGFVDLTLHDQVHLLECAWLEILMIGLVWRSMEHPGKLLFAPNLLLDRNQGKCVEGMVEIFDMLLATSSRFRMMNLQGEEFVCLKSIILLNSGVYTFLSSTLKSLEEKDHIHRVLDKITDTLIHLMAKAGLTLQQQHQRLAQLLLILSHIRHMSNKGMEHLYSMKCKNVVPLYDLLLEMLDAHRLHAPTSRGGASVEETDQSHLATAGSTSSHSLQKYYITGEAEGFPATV
T2 sequence (Q96SW2 whole entry, looked up): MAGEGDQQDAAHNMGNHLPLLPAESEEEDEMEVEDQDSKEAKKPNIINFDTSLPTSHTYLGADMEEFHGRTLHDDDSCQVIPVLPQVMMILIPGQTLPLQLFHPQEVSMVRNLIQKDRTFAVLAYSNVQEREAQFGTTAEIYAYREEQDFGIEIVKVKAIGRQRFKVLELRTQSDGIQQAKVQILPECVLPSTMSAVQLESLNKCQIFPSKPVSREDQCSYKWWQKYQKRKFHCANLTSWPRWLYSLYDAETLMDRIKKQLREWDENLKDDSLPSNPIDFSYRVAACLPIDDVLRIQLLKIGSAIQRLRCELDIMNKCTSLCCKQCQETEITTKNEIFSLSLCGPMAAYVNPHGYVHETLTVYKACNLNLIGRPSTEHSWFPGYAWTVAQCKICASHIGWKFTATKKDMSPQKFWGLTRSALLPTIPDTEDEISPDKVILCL

In the case of CCNCCc1ccc(CN(CC)c2cc(OC)ccc2[C@@H]2CCc3cc(O)ccc3C2)cc1 [ELACESTRANT], the inhibition in vivo at 60 mg/kg (MCF7 [1]) is reported as 88%, the inhibition in vivo at 90 mg/kg (MCF7 [2]) is reported as 97% and the inhibition in vivo at 30 mg/kg (MCF7 [3]) is reported as 66%. The inhibition in vivo at 120 mg/kg (MCF7 [4]) was 96%.
CN(C)C(=O)/C=C/CNCCOc1ccc(/C(=C(/CC(F)(F)F)c2ccccc2)c2ccc3[nH]nc(F)c3c2)cn1 [H3B-6545 FREE BASE] gave a clearance [5] of 18.2 mL/min/kg, a bioavailability [6] of 26% and an AUC at 24 h [7] of 2500 ng·h/mL. It also gave a Cmax [8] of 420 ng/mL, an F [9] of 6.2% and a half-life [10] of 4 h. The half-life [11] was 2.3 h, the GI50 (MCF7 [12]) was 0.3 nM and the Vd [13] was 3 L/kg. It also gave a Vd [14] of 1.2 L/kg, a Cmax [15] of 1200 ng/mL and an AUC [16] of 14200 ng·h/mL.
With Oc1ccc2c3c(cnc2c1)-c1ccc(C(F)(F)F)cc1O[C@@H]3c1ccc(OCCN2CC(CF)C2)cc1 [IMLUNESTRANT] the inhibition [17] was greater than 75%, the inhibition [18] was greater than 75% and the IC50 (MCF7 [19]) was 3 nM. It also gave an IC50 (MCF7 [20]) of 17 nM.
CC(=O)c1c(C)c2cnc(Nc3ccc(N4CCNCC4)cn3)nc2n(C2CCCC2)c1=O [PALBOCICLIB] showed an inhibition in vivo at 60 mg/kg [21] of 91%.
O=C1CC[C@H](N2Cc3cc(N4CCN(CC5CCN(c6ccc([C@@H]7c8ccc(O)cc8CC[C@@H]7c7ccccc7)cc6)CC5)CC4)ccc3C2=O)C(=O)N1 [VEPDEGESTRANT] gave a Cmax [22] of 962 ng/mL, a Cmax [23] of 84 ng/mL and an AUC(0-t) at 18 h [24] of 658 ng·h/mL. For the same molecule, the AUC(0-t) at 18 h [25] was 2540 ng·h/mL, the inhibition in vivo at 10 mg/kg (MCF7 [26]) was 98% and the inhibition in vivo at 30 mg/kg (MCF7 [27]) was 105%. The inhibition in vivo at 30 mg/kg [28] was 113%, the Activity [29] was 97% and the Activity [30] was 95%. The inhibition in vivo at 30 mg/kg (MCF7 [31]) was 131%, the Cmax [32] was 312 ng/mL and the inhibition in vivo at 30 mg/kg (MCF7 [33]) was 124%. The inhibition in vivo at 200 mg/kg (MCF7 [34]) was 108%, the Activity [35] was 94% and the AUC(0-t) at 18 h [36] was 5720 ng·h/mL. For the same molecule, the inhibition in vivo at 30 mg/kg [37] was 65%.
